Values quoted from earlier work in patent publication US9592310B1 (priority 2004, dated 2017).

Question: With `[O][Cl+][O-]` [Chlorine dioxide] as the molecule, how does the “concentration at which chlorine dioxide is stable in water and aqueous solutions” value read?
Answer: Its value is “approximately 10 grams per Liter”.
